Test results reported in US6416987B1, “Mutants of thymidylate synthase and uses thereof” (Sloan Kettering Institute for Cancer Research, priority 1997, dated 2002).
Where two headings read alike, the source gives them in different places.

Tests used:
[1] = biological target: TS-negative FSthy21 cells transfected with wild-type human TS cDNA (Homo sapiens, UniProt P04818, P2L, cells depend on it); assay: Growth inhibition assay (alamar Blue), TS-negative cells transfected with wild-type human TS cDNA; assay type: cell-based, mouse; conditions: Tomudex, 7-day exposure, read-out: IC50 values
[2] = system: mouse bone marrow cells (N.B.M.); assay: CFU-GM / HPPCFU-C assay, N.B.M.; assay type: cell-based
[3] = system: mouse bone marrow cells transfected with wild type TS (TS161); assay: CFU-GM / HPPCFU-C assay, marrow transfected with plasmid TS161; assay type: cell-based
Description: (§1) DNA into Mouse Bone Marrow Progenitor Cells Twenty micrograms of plasmid DNA (TS161 or TS175) and ten micrograms of DOTAP were diluted to 100 μl with HBS buffer and incubated at room temperature for 10 minutes. The mixture was added to 2×10^6 mouse bone marrow cells suspended in 0.5 ml of IMDM medium (in a 35 mm culture dish). After a 4 hour incubation at 37° C., 2 ml of IMDM with 30% FBS was added to each dish and the incubation was continued for 24 hours. […] Transfected cells prepared as described above were distributed into 10×35 mm dishes (3×10^5 cells in […] IMDM media/dish). […] Drug was added at the indicated concentration to each dish and the cells were cultured at 37° C. (5% CO2) for 10-14 days.

[4] = system: mouse bone marrow cells transfected with mutant TS (TS175); assay: CFU-GM / HPPCFU-C assay, marrow transfected with plasmid TS175; assay type: cell-based
Description: as §1

Normal Bone Marrow cells = assay: CFU-GM assay, Normal Bone Marrow (retroviral vector study); assay type: cell-based, murine
Source text: (§2) The following tables 15-17 summarize additional proof that these mutants confer resistance to chemotherapeutic agents by increasing the number of drug resistant CFU-GM colonies formed by murine bone marrow cells infected with retroviral vectors containing these mutant TS cDNAs.

[5] = system: murine bone marrow cells infected with Wt TS vector; assay: CFU-GM assay, marrow infected with Wt TS retroviral vector; assay type: cell-based
[6] = system: murine bone marrow cells infected with I108A mut-TS vector; assay: CFU-GM assay, marrow infected with I108A mut-TS retroviral vector; assay type: cell-based
Source text: as §2

TS = TS (Homo sapiens, UniProt P04818); conditions: enzyme assays; cited from earlier work
cell growth = conditions: cited from earlier work
FPGS = FPGS (Homo sapiens, UniProt Q05932); conditions: cited from earlier work
[7] = biological target: TS-negative FSthy21 cells transfected with I108A mutant human TS cDNA (Homo sapiens, UniProt P04818, P2L/I108A, cells depend on it); assay: Growth inhibition assay (alamar Blue), I108A transfectants; conditions: read-out: IC50 values, Tomudex, 7-day exposure
Sequence of TS-negative FSthy21 cells transfected with I108A mutant human TS cDNA (P04818 whole entry P2L/I108A): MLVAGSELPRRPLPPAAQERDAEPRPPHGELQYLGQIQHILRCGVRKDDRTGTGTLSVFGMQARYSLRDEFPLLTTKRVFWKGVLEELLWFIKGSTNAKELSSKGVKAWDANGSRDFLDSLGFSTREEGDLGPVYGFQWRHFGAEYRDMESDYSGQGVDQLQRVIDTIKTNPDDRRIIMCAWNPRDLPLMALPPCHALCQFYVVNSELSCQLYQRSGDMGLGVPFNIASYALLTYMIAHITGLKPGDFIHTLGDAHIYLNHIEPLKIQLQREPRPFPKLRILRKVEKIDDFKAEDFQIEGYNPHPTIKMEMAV
Description: The mouse TS-negative FSthy21 cells were used as the host for DNA transfections. This cell line, which is a TS-deficient derivative of mouse FM3A cells, was routinely maintained in MEM medium supplemented with 10% fetal bovine serum and 10×10^−5 M thymidine. Transfections were performed by DOTAP, using 10 μg of DNA/culture. Four days after transfection, cells were placed in selective medium, which contain no thymidine and reduced folate. Colonies having the ability to grow in the absence of thymidine were pooled and propagated as a mass culture.
Logarithmically growing suspension mouse TS-20 negative FSthy21 cells transfected with wild-type or variant human TS cDNA were seeded in 96-well plates at 1,000 cells/well in 180 μl of complete medium. […] Cell viability was measured by the alamar Blue™ assay. This method incorporates an oxidation-reduction (REDOX) indicator that both fluoresces and changes color in response to chemical reduction of growth medium resulting from cell growth. To above 96-well cultured cells, 25 μl of Alamar Blue (Alamar, Sacramento, Calif.) (10% of incubation volume) were added according to the manufacturer's instructions. The culture 96-well plates were then incubated at 37° C. for 4 hours. Viable cells induce chemical reduction of the media which results in a change in REDOX color from blue to red. The intensity of red color (and fluoresces) is proportional to the viable cells. After incubation, fluorescence is was read at 530-560 nm excitation wavelength and 590 nm emission wavelength by an automated plate reader (model EL340; Bio-Tek). Drug concentrations needed to reduce cell growth by 50% (IC50 values) were determined graphically by plotting of cell growth verses inhibitor concentration.
The effect of three antifolates and FdUrd on the growth characteristics of transfectants that stably express various TS proteins was evaluated by cytotoxicity studies. Cell growth was measured by the alamar blue assay. IC50 values were calculated as the concentration of inhibitor required to inhibit growth by 50% compared to wild-type transfected cells grown under identical conditions.

Sequence of TS-negative FSthy21 cells transfected with wild-type human TS cDNA (P04818 whole entry P2L): as the sequence (P04818 whole entry P2L/I108A) above, with A108I counted along it
Sequence of TS (P04818 whole entry): as the sequence (P04818 whole entry P2L/I108A) above, with L2P, A108I counted along it
Sequence of FPGS (Q05932 43-587, species assumed): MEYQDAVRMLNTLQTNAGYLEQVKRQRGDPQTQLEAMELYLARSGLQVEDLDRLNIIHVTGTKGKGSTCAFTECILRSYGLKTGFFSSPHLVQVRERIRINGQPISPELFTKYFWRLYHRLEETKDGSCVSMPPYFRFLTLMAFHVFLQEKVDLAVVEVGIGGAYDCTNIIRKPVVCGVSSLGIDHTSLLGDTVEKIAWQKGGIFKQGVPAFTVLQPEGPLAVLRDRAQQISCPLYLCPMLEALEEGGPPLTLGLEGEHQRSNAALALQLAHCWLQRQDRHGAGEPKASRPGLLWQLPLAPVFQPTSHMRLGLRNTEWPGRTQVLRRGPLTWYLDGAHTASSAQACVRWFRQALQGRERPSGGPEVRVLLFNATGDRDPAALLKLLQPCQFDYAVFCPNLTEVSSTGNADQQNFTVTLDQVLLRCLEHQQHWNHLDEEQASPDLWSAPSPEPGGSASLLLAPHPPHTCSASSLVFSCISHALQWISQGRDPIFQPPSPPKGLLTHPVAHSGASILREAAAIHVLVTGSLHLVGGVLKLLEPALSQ

Structure (SMILES): Cc1nc2ccc(CN(C)c3ccc(C(=O)N[C@@H](CCC(=O)O)C(=O)O)s3)cc2c(=O)[nH]1 [Tomudex, N-(5-[N-(3,4-dihydro-2-methyl-4-oxoquinazolin-6-ylmethyl)-N-methylamino-]-2-thenoyl)-L-glutamic acid]
- GI50 ([1]; wild-type/clone (1) [161-1]): 2.37 ± 0.18 nM
- GI50 ([1]; wild-type/clone (2) [161-2]): 1.8 ± 0.47 nM
- GI50 ([1]; wild-type/clone (3) [161-3]): 3.37 ± 0.34 nM
- CFU-GM colonies ([2]; tomudex 1 × 10^−8 M): 14
- CFU-GM colonies, % in parentheses ([2]; tomudex 1 × 10^−8 M): 17%
- HPPCFU-C colonies ([2]; tomudex 1 × 10^−8 M): 0
- CFU-GM colonies ([2]; tomudex 2 × 10^−8 M): 0
- CFU-GM colonies ([3]; tomudex 1 × 10^−8 M): 28
- CFU-GM colonies, % in parentheses ([3]; tomudex 1 × 10^−8 M): 26%
- HPPCFU-C colonies ([3]; tomudex 1 × 10^−8 M): 0
- CFU-GM colonies ([3]; tomudex 2 × 10^−8 M): 0
- CFU-GM colonies ([4]; tomudex 1 × 10^−8 M): 64
- CFU-GM colonies, % in parentheses ([4]; tomudex 1 × 10^−8 M): 44%
- HPPCFU-C colonies ([4]; tomudex 1 × 10^−8 M): 9
- HPPCFU-C colonies, % in parentheses ([4]; tomudex 1 × 10^−8 M): 6%
- CFU-GM colonies ([4]; tomudex 2 × 10^−8 M): 14
- CFU-GM colonies, % in parentheses ([4]; tomudex 2 × 10^−8 M): 10%
- CFU-C (Normal Bone Marrow cells; Tomudex 1 × 10^−8 M): 16
- CFU-C, % in parentheses (Normal Bone Marrow cells; Tomudex 1 × 10^−8 M): 10%
- HPPCFU-C (Normal Bone Marrow cells; Tomudex 1 × 10^−8 M): 0
- CFU-C (Normal Bone Marrow cells; Tomudex 2 × 10^−8 M): 0
- CFU-C ([5]; Tomudex 1 × 10^−8 M): 33
- CFU-C, % in parentheses ([5]; Tomudex 1 × 10^−8 M): 20%
- HPPCFU-C ([5]; Tomudex 1 × 10^−8 M): 10
- HPPCFU-C, % in parentheses ([5]; Tomudex 1 × 10^−8 M): 23%
- CFU-C ([5]; Tomudex 2 × 10^−8 M): 10
- CFU-C, % in parentheses ([5]; Tomudex 2 × 10^−8 M): 6%
- CFU-C ([6]; Tomudex 1 × 10^−8 M): 53
- CFU-C, % in parentheses ([6]; Tomudex 1 × 10^−8 M): 36%
- HPPCFU-C ([6]; Tomudex 1 × 10^−8 M): 26
- HPPCFU-C, % in parentheses ([6]; Tomudex 1 × 10^−8 M): 53%
- CFU-C ([6]; Tomudex 2 × 10^−8 M): 25
- CFU-C, % in parentheses ([6]; Tomudex 2 × 10^−8 M): 15%
- less potent as a TS inhibitor than CB3717 (TS): 20 times
- more active in inhibiting cell growth than CB3717 (cell growth): 500 fold
- affinity for FPGS higher than that of CB3717 (FPGS): 30 times
- GI50 ([7]; 1108A/clone (1) [175-1]): 97.9 ± 17.1 nM
- GI50 ([7]; 1108A/clone (2) [175-2]): 76.8 ± 7.3 nM
- GI50 ([7]; 1108A/clone (3) [175-3]): 174 ± 7 nM
